Where a chain is given by its changes, count along the chain named.

The target in one assay is T1, Epac1 (Homo sapiens, UniProt O95398).
T1 sequence (O95398 191-923 limits assumed): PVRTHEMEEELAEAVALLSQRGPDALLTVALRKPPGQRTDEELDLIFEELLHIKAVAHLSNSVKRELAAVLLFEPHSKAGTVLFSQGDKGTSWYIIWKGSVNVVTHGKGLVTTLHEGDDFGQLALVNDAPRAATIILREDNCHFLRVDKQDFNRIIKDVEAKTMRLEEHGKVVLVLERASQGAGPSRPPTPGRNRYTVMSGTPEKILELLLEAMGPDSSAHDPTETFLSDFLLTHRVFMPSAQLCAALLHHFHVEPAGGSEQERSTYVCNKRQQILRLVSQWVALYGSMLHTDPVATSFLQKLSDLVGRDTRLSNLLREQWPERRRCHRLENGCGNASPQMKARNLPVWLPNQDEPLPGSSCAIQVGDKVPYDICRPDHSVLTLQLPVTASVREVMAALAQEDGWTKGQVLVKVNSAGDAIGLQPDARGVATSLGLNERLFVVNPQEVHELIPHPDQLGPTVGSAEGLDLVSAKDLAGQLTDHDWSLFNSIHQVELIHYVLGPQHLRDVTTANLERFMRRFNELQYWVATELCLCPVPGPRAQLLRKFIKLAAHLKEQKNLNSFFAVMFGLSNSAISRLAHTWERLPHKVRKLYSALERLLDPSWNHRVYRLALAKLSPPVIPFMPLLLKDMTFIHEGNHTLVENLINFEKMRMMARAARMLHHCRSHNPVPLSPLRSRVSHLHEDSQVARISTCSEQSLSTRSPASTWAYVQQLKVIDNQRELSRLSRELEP
Nature of the assay: biochemical. To be noted: 30 μM Sp-8-CPT, 20 μM inhibitor. The text has this: FIGS. 4-8. […] Variations of relative fluorescence units (RFU) were studied as a function of time and fitted to single exponentials.

The next assay deals with mice. To be noted: single i.v. bolus 8 mg/kg 5 min before reperfusion; 45 min occlusion, 24 h reperfusion.
The next assay concerns the target T2, Epac1-BRET sensor CAMYEL (Homo sapiens, UniProt O95398, F824A/T823A).
T2 construct: made in house; host or cells: Prokaryotic expression vector pQE30-CAMYEL; used as cell extract
T2 sequence (O95398 191-923 T823A/F824A limits assumed): T1 sequence (O95398 191-923 limits assumed) with T633A, F634A
Nature of the assay: CAMYEL Epac1-BRET sensor assay (cAMP-induced conformational change). Type of assay: biochemical. The settings on record: not modified by increasing concentrations of cAMP. A general note: Bioluminescence resonance energy transfer reports proximity on the nanometre scale.

Method for mice: Statistical significance was determined by two-way ANOVA followed by Bonferroni post-test or t-test. *p<0.01, **p<0.01, ***p<0.001, versus indicated values
Mice were anesthetized with intraperitoneal ketamine (60 mg/kg) and xylazine (6 mg/kg), intubated and ventilated mechanically. Anesthesia was maintained throughout the chirurgical procedure with 1.5% isoflurane. Body temperature was maintained at 37° C. A left thoracotomy was performed in order to enable coronary artery occlusion with a 7-0 Prolene thread placed around the left coronary artery for 45 min, followed by 24 h of reperfusion. […] Myocardial ischemia was confirmed by the presence of regional cyanosis. Reperfusion was confirmed by visualization of a hyperemic response. At this point, the chest was closed in layers. 24 h after reperfusion, mice were anesthetized again, the coronary artery was reoccluded at the previous site, and the heart was excised after Evans blue perfusion. The area at risk and the infarct area were respectively determined by Evans blue and 2,3,5-triphenyltetrazolium chloride (TTC) staining. The area at risk was identified as the non-blue region and expressed as a percentage of the left ventricle weight. The infarcted area was identified as the TTC negative zone and expressed as a percentage of area at risk.

Consider `C[C@@H]1CCc2c(cc(Br)c(F)c2Br)N1C=O` [(R)-CE3F4, reference compound], for which, on Epac1, the “effect on Epac1 GEF (exchange) activity” value was “reduced”. In addition, the “ratio of infarct size to area-at-risk” value with mice was “failed to reduce infarct size”. The “IC50 (half-maximal inhibitory concentration), BRET sensor” value against Epac1-BRET sensor CAMYEL is “lower IC50 than AM-001”.

The values above are taken from patent US20210230179A1, “THIENO[2,3-B]PYRIDINE DERIVATIVES AS EPAC INHIBITORS AND THEIR PHARMACEUTICAL USES” (INSTITUT NATIONAL DE LA SANTE ET DE LA RECHERCHE MEDICALE …, priority 2018, published 2021).
